From US6458823B1, “Diaminopyrazoles” (Wyeth, priority 1998, dated 2002) come the findings set out here.

Where a name gives a salt, the structure may show the parent alone.

Series [1] concerns hypertrophied bladder (detrusor) smooth muscle. Nature of the series: Inhibition of spontaneous contractions in vivo, hypertrophied rat bladder model (cystometry). Further details: species or system Female Sprague-Dawley rats. As to conditions: 10 mg/kg p.o., cystometry one hour after dosing. On the procedure: In addition, we tested the ability of compounds to inhibit the hyperactivity of hypertrophied bladder (detrusor) smooth muscle in conscious female rats with hypertrophied bladders and thereby alleviate urinary incontinence in rats according to the following protocol described by Malmgren et al. (J. Urol. 1989, 142, 1134.):
Female Sprague-Dawley rats, ranging in weight from 190-210 g are used. Up to 25 animals are prepared each time. After development of bladder hypertrophy 4-8 animals are used per test.
Compounds are dissolved in PEG-200 and administered by gastric gavage or intravenously in a volume of 5 mL/kg. For primary screening all drugs are administered at the arbitrary dose of 10 mg/kg p.o. to groups of 4 rats.
The animals are anesthetized with halothane. Through a midline incision the bladder and urethra are exposed and a ligature of 4-0 silk is tied around the proximal urethra in the presence of a stainless steel rod (1 mm diameter) to produce a partial occlusion. […] The following urodynamic variables are recorded: […]
The mean value of each variable is calculated before and after compound administration. For each compound the changes in the variables measured are compared to the values obtained before treatment and expressed as percent inhibition. The data are also subjected to 2-way analysis of variance to determine significant (p<0.05) changes in the variable measured. […]

The test system of series [2] is Isolated Rat Bladder Strips. Put plainly: Inhibition of contractions in isolated rat bladder strips (KCl-enhanced contractile activity). Further details: species or system Sprague-Dawley rats. Conditions: 0.5 h, 15 mM KCl added, contractile activity measured in last minute of 30 minute challenge. On the procedure: Sprague-Dawley rats (150-200 g) are rendered unconscious by CO2 asphyxiation and then euthanized by cervical dislocation. The bladder is removed into warm (37° C.) physiological salt solution (PSS) of the following composition (mM): NaCl, 118.4; KCI, 4.7; CaCl2, 2.5; MgSO4, […]; NaHCO3, 24.9; KH2PO4, 1.2; glucose, 11.1; EDTA, 0.023; gassed with […]; pH 7.4. The bladder is opened and then cut into strips 1-2 mm in width and 7-10 nmm in length. The strips are subsequently suspended in a 10 mL tissue bath under an initial resting tension of 1.5 g. The strips are held in place by two surgical clips one of which is attached to a fixed hook while the other is attached to an isometric force transducer. […] The carbachol is then washed out and the tissue allowed to relax to its resting level of activity. Following a further 30 min period of recovery an additional 15 mM KCl are introduced into the tissue bath. This increase in KCl concentration results in a large increase in the amplitude of spontaneous contractions (and initiation of contractions in previously quiescent strips) superimposed upon a small increase in basal tone. Following stabilization of this enhanced level of contractile activity, incremental increases in the concentration of test compound or vehicle are introduced into the tissue bath. Contractile activity is measured for each compound or vehicle concentration during the last minute of a 30 minute challenge.
The isometric force developed by the bladder strips is measured using a […] to elicit 50% inhibition of pre-drug contractile activity (IC50 concentration) and is calculated from this concentration-response curve.

By melting point is commonly meant the temperature, or range, at which the solid turns liquid. As a reminder, the IC50 is the concentration at which inhibition is half-maximal.

Turning to `Cc1nn(C)c(NCC(C)(C)C)c1NCc1ccc(C#N)cc1` (as salt: tosylate) [Example 2, 4-{[5-(2,2-Dimethyl-propylamino)-1,3-dimethyl-1H-pyrazol-4-ylamino]-methyl}-benzonitrile], the melting point lay within 102 to 104 °C.

Regarding `Cc1nn(C)c(NCC(C)(C)C)c1NCc1ccncc1` [Example 1, N(3)-(2,2-Dimethyl-propyl)-2,5-dimethyl-N(4)-pyridin-4-ylmethyl-2H-pyrazole-3,4-diamine], the melting point lay in the range of 88 to 90 °C. Further, the “% Red (F): percent reduction in the total number of spontaneous contractions” value in series [1] is on record as −36 ± 7%. The IC50 in series [2] is 4.9 µM.

`Cc1nn(C)c(NCC(C)(C)C)c1NCc1ccc(C#N)cc1` [Example 2, 4-{[5-(2,2-Dimethyl-propylamino)-1,3-dimethyl-1H-pyrazol-4-ylamino]-methyl}-benzonitrile]: the 50% inhibitory concentration (IC50) in series [2] came out at 8.26 µM. In turn, `Cc1nn(C)c(NCC(C)(C)C)c1NCc1ccc(F)cc1` [Example 3, N(3)-(2,2-Dimethyl-propyl)-N(4)-(4-fluoro-benzyl)-2,5-dimethyl-2H-pyrazole-3,4-diamine] registered a melting point of 32 to 39 °C. Besides, the IC50 in series [2] turned out to be 11.5 µM. Turning to `Cc1nn(C)c(NCC(C)(C)C)c1NCc1ccc(Cl)cc1Cl` [Example 4, N(4)-(2,4-Dichloro-benzyl)-N(3)-(2,2-dimethyl-propyl)-2,5-dimethyl-2H-pyrazole-3,4-diamine], the IC50 in series [2] stood at 11.8 µM. Still for that read-out and setting: the result for `CCC(C)(C)CNc1c(NCc2ccc(C#N)cc2)c(C)nn1C` [Example 5, 4-{[5-(2,2-Dimethyl-butylamino)-1,3-dimethyl-1H-pyrazol-4-ylamino]-methyl}-benzonitrile] reads 12.6 µM.

With `Cc1nn(C)c(NCC(C)(C)C)c1NCc1ccc(F)cc1F` [Example 6, N(4)-(2,4-Difluoro-benzyl)-N(3)-(2,2-dimethyl-propyl)-2,5-dimethyl-2H-pyrazole-3,4-diamine], the IC50 in series [2] worked out at 13.5 µM.

In the case of `Cc1nn(C)c(NCC(C)(C)C)c1NCc1cccnc1` [Example 7, N(3)-(2,2-Dimethyl-propyl)-2,5-dimethyl-N(4)-pyridin-3-ylmethyl-2H-pyrazole-3,4-diamine], in series [2], the IC50 worked out at 15.4 µM. `Cc1cc(C)c(CNc2c(C)nn(C)c2NCC(C)(C)C)c(C)c1` [Example 8, N(3)-(2,2-Dimethyl-propyl)-2,5-dimethyl-N(4)-(2,4,6-trimethyl-benzyl)-2H-pyrazole-3,4-diamine]: the melting point is 114 to 120 °C. In addition, the IC50 in series [2] was 17.8 µM.

As for `CCC(C)(C)CNc1c(NCc2ccncc2)c(C)nn1C` [Example 9, N(3)-(2,2-Dimethyl-butyl)-2,5-dimethyl-N(4)-pyridin-4-ylmethyl-2H-pyrazole-3,4-diamine], in series [2], the concentration for half-maximal inhibition (IC50) is 19.2 µM. On the same count and under the same terms, next, `CCC(C)(C)CNc1c(NCc2ccccc2)c(C)nn1C` [Example 10, N(4)-Benzyl-N(3)-(2,2-dimethyl-butyl)-2,5-dimethyl-2H-pyrazole-3,4-diamine]: 19.9 µM; `Cc1nn(C)c(NCC(C)(C)C)c1Nc1ccccc1` [Example 11, N(3)-(2,2-Dimethyl-propyl)-2,5-dimethyl-N(4)-phenyl-2H-pyrazole-3,4-diamine]: 4.3 µM; `Cc1cc(Cl)ccc1Nc1c(C)nn(C)c1NCC(C)(C)C` [Example 12, N(4)-(4-Chloro-2-methyl-phenyl)-N(3)-(2,2-dimethyl-propyl)-2,5-dimethyl-2H-pyrazole-3,4-diamine]: 12.5 µM. `Cc1nn(C)c(NCC(C)(C)C)c1Nc1ccc(C#N)cc1` [Example 13, 4-[5-(2,2-Dimethyl-propylamino)-1,3-dimethyl-1H-pyrazol-4-ylamino]-benzonitrile] yielded a melting point of 131 to 134 °C. Besides, in series [2], the IC50 came out at 17.9 µM. `Cc1nn(C)c(NCC(C)(C)C)c1Nc1ccc(Cl)cc1` [Example 14, N(4)-(4-Chloro-phenyl)-N(3)-(2,2-dimethyl-propyl)-2,5-dimethyl-2H-pyrazole-3,4-diamine]: the IC50 in series [2] came to 22.9 µM.
